In patent publication EP4702986A1, “POLYPEPTIDE AND USE THEREOF” (Biocells (Beijing) Biotech Co., Ltd., priority 2023, dated 2024):
Read-outs that look alike come from different tables or passages of the source. Numbered stars: 1 amine (or outer) side, 2 acyl side, 3 side chain; on linkers, the order of the positions; unused ones are H or OH. Side chains are listed from the residue outwards. Ends that are not written are not given here. Peptide text beside a SMILES is read from it. * marks the point of attachment. X1 = C[C@H](NC(=O)[C@@H]1CCCN1C(=O)[C@@H](N)CSC1CC(=O)N(CCC(=O)*)C1=O)C(=O)N[C@@H](CCCCN)C(=O)O; γGlu = O=C(O)[C@H](CCC(=O)[*:2])N[*:1]; Fumaroyl = O=C(O)/C=C/C(=O)*; Suc = O=C(CCC(=O)[*:2])[*:1]; Lauroyl = CCCCCCCCCCCC(=O)*; AEEA = NCCOCCOCC(=O)O

Tests used:
Assay type in all cases: cell-based
rat ETB receptor = biological target: T1, rat ETB receptor (Rattus norvegicus, UniProt P21451); assay: Determination of EC50s of polypeptides against rat ETB receptor; conditions: Table 8, rat ETB receptor; for EC50: read-out: DETAR Agonist Activity EC50
T1 construct: expressed in transfected cells
T1 sequence (P21451 27-442): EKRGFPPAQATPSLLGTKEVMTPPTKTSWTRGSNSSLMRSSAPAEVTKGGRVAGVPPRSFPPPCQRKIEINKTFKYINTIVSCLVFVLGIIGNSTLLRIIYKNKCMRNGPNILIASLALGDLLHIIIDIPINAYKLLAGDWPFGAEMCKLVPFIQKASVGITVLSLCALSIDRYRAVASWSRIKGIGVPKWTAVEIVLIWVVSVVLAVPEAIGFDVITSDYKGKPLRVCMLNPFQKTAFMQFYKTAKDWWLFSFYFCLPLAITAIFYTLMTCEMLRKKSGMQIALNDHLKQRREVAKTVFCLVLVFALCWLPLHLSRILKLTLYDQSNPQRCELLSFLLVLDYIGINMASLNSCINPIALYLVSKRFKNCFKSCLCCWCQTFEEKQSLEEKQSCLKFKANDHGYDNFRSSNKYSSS
Experimental: (§1) 293T-17 cells were seeded at a density of 650,000 cells per well in a 6-well plate and cultured overnight in an incubator at 37°C and 5% CO2. Afterward, the cells were transfected with an expression vector, PCDNA3.1-hETB which contained a human ETB receptor gene, at a plasmid concentration of 2.5 µg per well. The cells were further cultured for 48 hours, and green fluorescence expression was observed under a fluorescence microscope. The cells were then digested with trypsin and counted. The activity of compounds on the human ETB receptor was determined with the IP-One Gq kit from Cisbio Bioassays. The cells were suspended in Stim Buffer provided in the kit and the cell suspension was added to a 96-well detection plate at 7 µL cell suspension (containing 30,000 cells) per well. The polypeptides to be tested (prepared according to the Preparation Example of the invention) were diluted in Stim B to obtain a gradient of 11 concentration points. For each concentration point, the polypeptides to be tested were dissolved in Stim B to be at a concentration of 2×, and added at 7 µL to the test cells, while 7 µL of PBS solution was added to the cells in the negative control wells. The plate was sealed and incubated at 37°C for 1 hour in a cell culture incubator. Detection wells, positive control wells containing human endothelin ET1 (ET1: […] (C1-C15,C3-C11)), and PBS control wells were each added with 3 µL of IP1 d2 working solution and 3 µL of IP1 Tb cryptotate Antibody working solution. The plate was then sealed and incubated in the dark at room temperature (25°C±5°C) for 1 hour. The plate seal was removed, and the […] at 665 nm and 620 nm was measured with an ID5 microplate reader. The ratio of the acceptor emission signal to the donor emission signal, i.e., (signal at 665 nm/signal at 620 nm)×10^4, was calculated for each well. With F representing the average value of values of signal at 665 nm/signal at 620 nm for the test samples at various concentrations, a scatterplot was plotted, where the abscissa represented the F value, and the ordinate represented the logarithmic value of the peptide concentration. A curve was fitted with an appropriate method to calculate EC50 values of the polypeptides against the human ETB receptor. Another method was provided for fitting a curve where activation rate of the test polypeptides at each concentration relative to the positive control sample human endothelin ET1 was calculated first with the method in Example 1, and a scatterplot was plotted, where the abscissa represented the activation rate, and the ordinate represented the logarithmic value of the polypeptide concentration. A curve was fitted with an appropriate method to calculate the EC50 values of the polypeptides against the human ETB receptor.
The process is the same as that in Example 3, except that the transfected plasmid was expression vector PCDNA3.1-RETB which contained a rat ETB receptor gene. EC50 values of the polypeptides against the rat ETB receptor were calculated (see Figures 11-13). The sequence of the rat ETB receptor (NCBI accession number: X57764.1).

dog ETB receptor = biological target: T2, dog ETB receptor (Canis lupus familiaris, UniProt P56497); assay: Determination of EC50s of polypeptides against dog ETB receptor; conditions: Table 7, dog ETB receptor; for EC50: read-out: DETAR Agonist Activity EC50
T2 construct: expressed in transfected cells
T2 sequence (P56497 27-442): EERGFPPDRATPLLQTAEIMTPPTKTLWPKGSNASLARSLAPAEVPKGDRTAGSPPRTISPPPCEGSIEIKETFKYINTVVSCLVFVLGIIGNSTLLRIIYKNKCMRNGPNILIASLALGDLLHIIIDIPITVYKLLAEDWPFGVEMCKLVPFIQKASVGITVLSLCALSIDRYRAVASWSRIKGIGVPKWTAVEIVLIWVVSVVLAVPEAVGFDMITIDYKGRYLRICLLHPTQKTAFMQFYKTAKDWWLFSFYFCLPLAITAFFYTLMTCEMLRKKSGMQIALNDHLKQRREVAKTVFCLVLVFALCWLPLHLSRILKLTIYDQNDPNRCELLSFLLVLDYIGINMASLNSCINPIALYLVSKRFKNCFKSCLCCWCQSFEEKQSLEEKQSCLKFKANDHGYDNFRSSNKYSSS
Experimental: as §1
The process is the same as that in Example 3, except that the transfected plasmid was expression vector PCDNA3.1-DETB which contained a dog ETB receptor gene. EC50 values of the polypeptide against the dog ETB receptor were calculated (see Figures 8-10). The sequence of the dog endothelin receptor B (NCBI accession number: NM_001010943.2).

human ETB receptor = biological target: T3, human ETB receptor (Homo sapiens, UniProt P24530); assay: Determination of EC50 of polypeptides against human ETB receptor (IP-One Gq kit)
T3 construct: expressed in transfected cells; host or cells: 293T-17 cells, transient transfection
T3 sequence (P24530 27-442): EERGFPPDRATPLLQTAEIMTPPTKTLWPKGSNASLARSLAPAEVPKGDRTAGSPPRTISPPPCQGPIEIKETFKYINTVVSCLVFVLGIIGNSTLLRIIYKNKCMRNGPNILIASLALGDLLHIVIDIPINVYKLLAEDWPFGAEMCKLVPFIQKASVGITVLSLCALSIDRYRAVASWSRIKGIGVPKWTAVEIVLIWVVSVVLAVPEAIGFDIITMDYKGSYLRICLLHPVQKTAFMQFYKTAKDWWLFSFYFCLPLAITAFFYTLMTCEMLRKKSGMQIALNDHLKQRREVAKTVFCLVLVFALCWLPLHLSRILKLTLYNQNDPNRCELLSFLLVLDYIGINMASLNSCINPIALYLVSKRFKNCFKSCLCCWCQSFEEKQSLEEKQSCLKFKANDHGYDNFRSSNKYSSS
Experimental: as §1

[1] = 293T-17 cells transfected with PCDNA3.1-hETB, read-out: hETBR agonist activity EC50/nM

Compound: CCCCCCCCCCCC(=O)N[C@@H](CCC(=O)NCCOCCOCC(=O)NCCCC[C@H](NC(=O)[C@H](Cc1c[nH]cn1)NC(=O)[C@H](C)NC(=O)[C@H](Cc1ccccc1)NC(=O)[C@H](Cc1ccc(O)cc1)NC(=O)[C@@H](NC(=O)[C@H](C)NC(=O)[C@H](CCC(=O)O)NC(=O)[C@H](CCC(=O)O)NC(=O)[C@H](CC(=O)O)NC(=O)/C=C/C(=O)O)C(C)C)C(=O)N[C@@H](CC(=O)O)C(=O)N[C@H](C(=O)N[C@H](C(=O)N[C@@H](Cc1c[nH]c2ccccc12)C(=O)O)[C@@H](C)CC)C(C)C)C(=O)O [BX229-Na] (Fumaroyl-DEEAVYFAHK([AEEA-γGlu-Lauroyl])DVIW-OH)
- EC50 (rat ETB receptor): 0.00722 µM
- EC50 (dog ETB receptor): 0.0179 µM
- EC50 (human ETB receptor; [1]): 16.7 nM

Compound: CC[C@H](C)[C@H](NC(=O)[C@H](CC(=O)O)NC(=O)[C@H](CCCCNC(=O)COCCOCCNC(=O)CCN1C(=O)CC(SC[C@H](N)C(=O)N2CCC[C@H]2C(=O)N[C@@H](C)C(=O)N[C@@H](CCCCN)C(=O)O)C1=O)NC(=O)[C@H](Cc1c[nH]cn1)NC(=O)[C@H](C)NC(=O)[C@H](Cc1ccccc1)NC(=O)[C@H](Cc1ccc(O)cc1)NC(=O)[C@@H](NC(=O)[C@H](C)NC(=O)[C@H](CCC(=O)O)NC(=O)[C@H](CCC(=O)O)NC(=O)[C@H](CC(=O)O)NC(=O)/C=C/C(=O)O)C(C)C)C(=O)N[C@H](C(=O)N[C@@H](Cc1c[nH]c2ccccc12)C(=O)O)[C@@H](C)CC (stereo partly drawn) [BX-95] (Fumaroyl-DEEAVYFAHK([AEEA-X1])DIIW-OH)
- EC50 (rat ETB receptor): 0.024 µM
- EC50 (dog ETB receptor): 0.0691 µM
- EC50 (human ETB receptor; [1]): 45.6 nM

Compound: CC[C@H](C)[C@H](NC(=O)[C@H](CC(=O)O)NC(=O)[C@H](CC(C)C)NC(=O)[C@H](Cc1c[nH]cn1)NC(=O)[C@H](C)NC(=O)[C@H](Cc1ccccc1)NC(=O)[C@H](Cc1ccc(O)cc1)NC(=O)[C@@H](NC(=O)[C@H](C)NC(=O)[C@H](CCC(=O)O)NC(=O)[C@H](CCC(=O)O)NC(=O)[C@H](CC(=O)O)NC(=O)CCC(=O)O)C(C)C)C(=O)N[C@H](C(=O)N[C@@H](Cc1c[nH]c2ccccc12)C(=O)O)[C@@H](C)CC [IRL1620, reference compound] (Suc-DEEAVYFAHLDIIW-OH)
- EC50 (human ETB receptor): 1.33 nM

Compound: Fum-DEEEVYFAHKDIIW (Fumaroyl-DEEEVYFAHKDIIW) [BX-52]
- DETAR Agonist Activity, % (rat ETB receptor; @10nM): 22.36%@10n M
- DETAR Agonist Activity, % (rat ETB receptor; @100nM): 389.09%@100 nM
- DETAR Agonist Activity, % (dog ETB receptor; @10nM): 76.82%@10 nM
- DETAR Agonist Activity, % (dog ETB receptor; @100nM): 104.49%@1 00nM

Compound: Fum-DEEEVYFAHOrnDIIW [BX-59]
- DETAR Agonist Activity, % (rat ETB receptor; @10nM): 314.15%@10n M
- DETAR Agonist Activity, % (rat ETB receptor; @100nM): 46.94%@100n M
- DETAR Agonist Activity, % (dog ETB receptor; @10nM): 14.7%@10n M
- DETAR Agonist Activity, % (dog ETB receptor; @100nM): 117.46%@1 00nM

Compound: Suc-DE cyclo(CEEC)YFAHKDIIW (Suc-DECEECYFAHKDIIW; not fully specified (bridges); printed as Suc-DE cyclo(CEEC)YFAHKDIIW; also: cyclo(CEEC) in N-terminal extension, bond type not given here) [BX-57]
- DETAR Agonist Activity, % (rat ETB receptor; @10nM): 67.42%
- DETAR Agonist Activity, % (rat ETB receptor; @100nM): 218.34%
- DETAR Agonist Activity, % (dog ETB receptor; @100nM): 49.81%
